Source: article PMC12736255, “Reinvestigating Pyrrol-2-One-Based Compounds: From Antimicrobial Agents to Promising Antitumor Candidates” (Pharmaceuticals, 2025)

Legend:
COLO 205 = assay: NCI-60 5-dose screen; assay type: cell-based, human
RXF 393 = assay: NCI-60 5-dose screen; assay type: cell-based, human
CAKI-1 = assay: NCI-60 5-dose screen; assay type: cell-based, human
BT-549 = assay: NCI-60 5-dose screen; assay type: cell-based, human
T-47D = assay: NCI-60 5-dose screen; assay type: cell-based, human
A498 = assay: NCI-60 5-dose screen; assay type: cell-based, human
SK-MEL-2 = assay: NCI-60 5-dose screen; assay type: cell-based, human
HCT-116 = assay: NCI-60 5-dose screen; assay type: cell-based, human
M14 = assay: NCI-60 5-dose screen; assay type: cell-based, human
TK-10 = assay: NCI-60 5-dose screen; assay type: cell-based, human
SK-OV-3 = assay: NCI-60 5-dose screen; assay type: cell-based, human
OVCAR-3 = assay: NCI-60 5-dose screen; assay type: cell-based, human
SR = assay: NCI-60 5-dose screen; assay type: cell-based, human
SNB-75 = assay: NCI-60 5-dose screen; assay type: cell-based, human
HOP-92 = assay: NCI-60 5-dose screen; assay type: cell-based, human
NCI-H226 = assay: NCI-60 5-dose screen; assay type: cell-based, human
CCRF-CEM = assay: NCI-60 5-dose screen; assay type: cell-based; details: Homo sapiens
SF-268 = assay: NCI-60 5-dose screen; assay type: cell-based, human
LOX IMVI = assay: NCI-60 5-dose screen; assay type: cell-based, human
SW-620 = assay: NCI-60 5-dose screen; assay type: cell-based, human
OVCAR-4 = assay: NCI-60 5-dose screen; assay type: cell-based, human
IGROV1 = assay: NCI-60 5-dose screen; assay type: cell-based, human
HL-60(TB) = assay: NCI-60 5-dose screen; assay type: cell-based, human
HS 578T = assay: NCI-60 5-dose screen; assay type: cell-based, human
KM12 = assay: NCI-60 5-dose screen; assay type: cell-based, human
A549/ATCC = assay: NCI-60 5-dose screen; assay type: cell-based, human
PC-3 = assay: NCI-60 5-dose screen; assay type: cell-based, human
U251 = assay: NCI-60 5-dose screen; assay type: cell-based, human
HOP-62 = assay: NCI-60 5-dose screen; assay type: cell-based, human
[1] = test system: Gram-positive and Gram-negative bacteria; design: method as in PMID 38398524; details: cited from earlier work
[2] = Homo sapiens, read-out: LC50 (the source's name)

N#Cc1ccc(C2C=C(Nc3ccc(I)cc3)C(=O)N2c2ccc(I)cc2)cc1 (stereo not shown) [3l]
TGI (COLO 205): >100 µM | GI50 (COLO 205; Homo sapiens): 5.29 µM | CC50 (COLO 205; [2]): > 100 µM | TGI (RXF 393): >100 µM | GI50 (RXF 393; Homo sapiens): 3.72 µM | CC50 (RXF 393; [2]): > 100 µM | TGI (CAKI-1): >100 µM | GI50 (CAKI-1; Homo sapiens): 9.48 µM | CC50 (CAKI-1; [2]): > 100 µM | TGI (BT-549): >100 µM | GI50 (BT-549; Homo sapiens): 5.81 µM | CC50 (BT-549; [2]): > 100 µM | TGI (T-47D): >100 µM | GI50 (T-47D; Homo sapiens, T47D): 7.13 µM | CC50 (T-47D; Homo sapiens, T47D, read-out: LC50 (the source's name)): > 100 µM | TGI (A498): >100 µM | GI50 (A498; Homo sapiens): 2.99 µM | CC50 (A498; [2]): > 100 µM | TGI (SK-MEL-2): >100 µM | GI50 (SK-MEL-2; Homo sapiens): 3.7 µM | CC50 (SK-MEL-2; [2]): > 100 µM | TGI (HCT-116): >100 µM | GI50 (HCT-116; Homo sapiens): 3.83 µM | CC50 (HCT-116; [2]): > 100 µM | TGI (M14): >100 µM | GI50 (M14; Homo sapiens): 7.24 µM | CC50 (M14; [2]): > 100 µM | TGI (TK-10): >100 µM | GI50 (TK-10; Homo sapiens): 3.85 µM | CC50 (TK-10; [2]): > 100 µM | TGI (SK-OV-3): >100 µM | GI50 (SK-OV-3; Homo sapiens): 6.41 µM | CC50 (SK-OV-3; [2]): > 100 µM | TGI (OVCAR-3): >100 µM | GI50 (OVCAR-3; Homo sapiens): 4.72 µM | CC50 (OVCAR-3; [2]): > 100 µM | TGI (SR): >100 µM | GI50 (SR; Homo sapiens): 6.28 µM | CC50 (SR; [2]): > 100 µM | TGI (SNB-75): 3.42 µM | GI50 (SNB-75; Homo sapiens): 1.34 µM | CC50 (SNB-75; [2]): 8.76 µM | TGI (HOP-92): 4.89 µM | GI50 (HOP-92; Homo sapiens): 1.46 µM | CC50 (HOP-92; [2]): > 100 µM | TGI (NCI-H226): >100 µM | GI50 (NCI-H226; Homo sapiens): 4.42 µM | CC50 (NCI-H226; [2]): > 100 µM | GI50 (CCRF-CEM): 3.26 µM | CC50 (CCRF-CEM; read-out: LC50 (the source's name)): > 100 µM | TGI (SF-268): >100 µM | GI50 (SF-268; Homo sapiens): 4.69 µM | CC50 (SF-268; [2]): > 100 µM | TGI (LOX IMVI): >100 µM | GI50 (LOX IMVI; Homo sapiens): 3.38 µM | CC50 (LOX IMVI; [2]): > 100 µM | TGI (SW-620): >100 µM | GI50 (SW-620; Homo sapiens): 5.91 µM | CC50 (SW-620; [2]): > 100 µM | TGI (OVCAR-4): 1.69 µM | GI50 (OVCAR-4; Homo sapiens): 0.422 µM | CC50 (OVCAR-4; [2]): 4.82 µM | TGI (IGROV1): >100 µM | GI50 (IGROV1; Homo sapiens, IGROV-1): 8.67 µM | CC50 (IGROV1; Homo sapiens, IGROV-1, read-out: LC50 (the source's name)): > 100 µM | TGI (HL-60(TB)): >100 µM | GI50 (HL-60(TB); Homo sapiens): > 100 µM | CC50 (HL-60(TB); [2]): > 100 µM | TGI (HS 578T): 5.64 µM | GI50 (HS 578T; Homo sapiens): 2.1 µM | CC50 (HS 578T; [2]): > 100 µM | TGI (KM12): >100 µM | GI50 (KM12; Homo sapiens): 9.7 µM | CC50 (KM12; [2]): > 100 µM | TGI (A549/ATCC): >100 µM | GI50 (A549/ATCC; Homo sapiens): 8.08 µM | CC50 (A549/ATCC; [2]): > 100 µM | TGI (PC-3): >100 µM | GI50 (PC-3; Homo sapiens): 2.4 µM | CC50 (PC-3; [2]): > 100 µM | TGI (U251): >100 µM | GI50 (U251; Homo sapiens, U-251): 4.17 µM | LC50 (50% lethal concentration) (U251; Homo sapiens, U-251): > 100 µM | TGI (HOP-62): >100 µM | GI50 (HOP-62; Homo sapiens): 5.21 µM | CC50 (HOP-62; [2]): > 100 µM

O=C1C(Nc2ccc(I)cc2)=CC(c2ccco2)N1c1ccc(I)cc1 (stereo not shown) [3m]
antibacterial activity (in words) [1]: highest antibacterial activity

O=C1C(Nc2ccc(I)cc2)=CC(c2ccc3c(c2)OCO3)N1c1ccc(I)cc1 (stereo not shown) [3n]
antibacterial activity (in words) [1]: highest antibacterial activity
